Measurements reported in patent US7119107B2, “Pyridone derivatives” (Banyu Pharmaceutical Co., Ltd., priority 2002, dated 2006).
Where two headings read alike, the source gives them in different places.

Assays:
Pharmacokinetics test = format: in vivo; details: rat, plasma, male SD rats, overnight fasting
Experimental: Pharmacological Test 3 (Pharmacokinetics Test)
A test compound was orally or intravenously administered to male SD rats (7–10 weeks old, 200–400 g) under the overnight fasting condition. About 100 μL of blood was collected from the tail vein by heparinized capillary at designated time. The blood was centrifuged (4° C., 6,000 r.p.m., 10 minutes) to obtain the plasma. Three-fold amount of ethanol containing an internal standard was added to plasma. The mixture was stirred, allowed to stand at −20° C. for 20 minutes, and then centrifuged (4° C., 10,000 r.p.m., 10 minutes). The supernatant was analyzed by LC/MS/MS, and the concentration of the test compound in the plasma was measured using a relative calibration curve.

general symptoms = test: General symptoms observation; format: in vivo; details: mice, 100 mg/kg orally, observed 0.5 to 24 hours after administration
Experimental: Pharmacological Test 5 (General Symptoms Observation)
A test compound was orally administered to male ICR mice (4–6 weeks old) under the overnight fasting condition, and general symptoms were observed 0.5, 1, 2, 3, 4 and 24 hours after the administration. The following 28 items were observed: stereotypy, glooming, vocalization, exploratory behavior, motor coordination, Straub tail reaction, tremor, convulsion, body posture, piloerection, writhing, palpebral opening, exophthalmos, skin color, respiratory rate, urination, defecation, salivation, lacrimation, startle response, aggression, grip strength, corneal reflex, body temperature, body tone, righting reflex, pain response and death.

[1] = Brain/cerebrospinal fluid transport test; format: in vivo, male SD rats; details: rat, one hour after oral administration (10 mg/kg); for concentration at 1 h: male, SD
Experimental: Pharmacological Test 4 (Brain/Cerebrospinal Fluid Transport Test)
A test compound was orally or intravenously administered to male SD rats (7–10 weeks old, 200–400 g), and whole blood was collected from the abdominal aorta using a heparin-treated syringe under the ether anesthesia at designated time. Then, the head skin was cut out, and a dental 30 G needle was inserted between the cervical vertebrae, and it was further inserted into the cavum subarachnoideum. After 50 to 100 μL cerebrospinal fluid had been collected by a 1 ml-syringe through a tube connected to the dental 30 G needle, the brain was extracted. The blood sample was centrifuged (4° C., 6,000 r.p.m., 10 minutes) to obtain the plasma, and 3-fold amount of ethanol containing an internal standard was added and stirred. The brain sample was homogenized after addition of 2 ml water, and an aliquot of the homogenate was taken and 3-fold amount of ethanol containing an internal standard was added and stirred. The cerebrospinal fluid was stirred after adding 3-fold amount of ethanol containing an internal standard. These samples were allowed to stand at −20° C. for 20 minutes, and then centrifuged (4° C., 12,000 g, 10 minutes). The supernatant was analyzed by LC/MS/MS, and the concentration of the test compound in the plasma, brain, and cerebrospinal fluid were measured by the method using a relative calibration curve.

human NPY Y5 receptor = molecular target: T1, human NPY Y5 receptor (Homo sapiens, UniProt Q15761); test: NPY binding inhibition test ([125I]peptide YY binding to membranes of NPY Y5 receptor expression cells); details: [125I]peptideYY, membranes of NPY Y5 receptor expressing cells, 25° C., 2 hours; read-out: 50% Inhibitory Concentration (IC50) against specific peptide YY binding
T1 construct: expressed in transfected cells; host or cells: COS-7, CHO and LM(tk-)
T1 sequence (Q15761 1-445): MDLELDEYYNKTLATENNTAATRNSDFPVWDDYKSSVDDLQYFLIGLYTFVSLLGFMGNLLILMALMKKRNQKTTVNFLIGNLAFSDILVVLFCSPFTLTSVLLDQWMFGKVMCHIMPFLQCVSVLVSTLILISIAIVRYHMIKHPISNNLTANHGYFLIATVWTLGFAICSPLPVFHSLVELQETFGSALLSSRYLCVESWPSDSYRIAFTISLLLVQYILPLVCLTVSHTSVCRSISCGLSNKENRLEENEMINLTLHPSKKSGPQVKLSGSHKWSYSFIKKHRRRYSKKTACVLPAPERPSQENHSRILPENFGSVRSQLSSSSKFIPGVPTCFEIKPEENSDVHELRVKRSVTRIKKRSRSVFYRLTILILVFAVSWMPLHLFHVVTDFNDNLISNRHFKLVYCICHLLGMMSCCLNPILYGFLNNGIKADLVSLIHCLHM
From the text: Pharmacological Test 1 (NPY Binding Inhibition Test)
cDNA sequence encoding human NPY Y5 receptor (c.f. International patent publication WO96/16542) was cloned into expression vectors pcDNA3, pRc/RSV (made by Invitrogen Inc.) and pCI-neo (made by Promega Inc.). The expression vectors thus obtained were transfected to host cells COS-7, CHO and LM(tk−) (American Type Culture Collection) by cationic lipid method (Proceedings of the National Academy of Sciences of the United States of America, vol. 84: p. 7413(1987)) to give NPY Y5 receptor expression cells.
A membrane sample prepared from the cells which expressed NPY Y5 receptor was incubated together with a test compound and [^125I]peptideYY (made by NEN) (20,000 cpm) in an assay buffer (25 mM Tris buffer, pH7.4, containing 10 mM magnesium chloride, 1 mM phenylmethylsulfonyl fluoride, 0.1% bacitracin and 0.5% bovine serum albumin) at 25° C. for 2 hours, then filtered through a glass filter GF/C and washed with 5 mM Tris buffer (pH7.4) containing 0.3% BSA. The radioactivity of the cake on the glass filter was measured. Non-specific binding was measured in the presence of 1 μM peptide YY, and a 50% Inhibitory Concentration (IC50) of the test compound against specific peptide YY binding was determined (Endocrinology, vol. 131: p. 2090(1992)).

[2] = tested on: gastrointestinal motility; test: Gastrointestinal motility (charcoal transportation); format: in vivo, male ICR mice; details: mice, 100 mg/kg orally, charcoal one hour later
Experimental: Pharmacological Test 6 (Gastrointestinal Motility) A test compound was orally administered to male ICR mice (4–6 weeks old) under the overnight fasting condition and, one hour later, 0.5% charcoal suspension (0.1 ml/10 g body weight) was orally administered. One hour after the administration of the charcoal, gastrointestinal tracts of the animals were removed, and length of the intestine from pylorus to the point to which charcoal reached was measured to obtain charcoal transportation ratio.

canine cardiac function = test: Canine cardiac function; format: in vivo, male beagle dogs; details: anesthetized beagle dogs, 3 mg/kg and 10 mg/kg via vein cannula, up to 60 minutes
From the text: Pharmacological Test 7 (Canine Cardiac Function)
The left femoral artery and vein of male beagle dogs (age: 9 months or older, weight: 10–15 kg) under anesthesia with isoflurane and artificial respiration were respectively cannulated for determination of arterial pressure and for administration of drugs. A tip catheter pressure transducer was placed in the left ventricle from the left carotid artery for determination of the left ventricular pressure. A Swan-Ganz catheter was placed in the pulmonary artery from the jugular vein via the right ventricle for determination of the pulmonary artery pressure, right atrium pressure and cardiac output. A transit doppler flow probe was attached to the right femoral artery for determination of the femoral blood flow. After completion of the operation, a solvent was administered from the cannula in the vein, followed by administration of a drug to be tested. Each parameter was determined just after the administration, and 10, 20, 30 and 60 minutes after the administration. The parameters determined were artery pressure, left ventricular pressure, pulmonary artery pressure, right atrium pressure, cardiac output, femoral blood flow, heart rate, electrocardiogram, left ventricular contractile performance (first differential of the left ventricular pressure), total peripheral vascular resistance, body temperature and arterial blood gas.

## C[C@@H]1NC(c2cccc(=O)[nH]2)=N[C@]1(c1ccc(F)cc1)c1ccnc(F)c1 [Example 1, 6-[(4R,5S)-4-(4-fluorophenyl)-4-(2-fluoro-4-pyridyl)-5-methyl-2-imidazolin-2-yl]-2(1H)-pyridinone]
Pharmacokinetics test; oral or intravenous administration
  bioavailability: 51%
Pharmacokinetics test
  half-life: 2.5 h
General symptoms
  effect on general symptoms (28 items): did not affect
[1]; cerebrospinal fluid, read-out: concentration in the cerebrospinal fluid
  concentration at 1 h: 106 nM
[1]; plasma, read-out: concentration in the plasma
  concentration at 1 h: 2790 nM
[1]
  concentration in the brain: 0.29 nmol/g
Human NPY Y5 receptor
  IC50: 2.8 nM
[2]
  effect on gastrointestinal motility (charcoal transportation ratio): did not affect
Canine cardiac function
  effect on canine cardiac function: did not affect
